One data set has as its system Cochliobolus miyabeanus. Put plainly: Cochliobolus test (rice)/protective. The data set is classed as in vivo. Particulars: 250 ppm, protective, evaluated 4 days after inoculation.
A short description of data set [1]: logP by HPLC on reversed-phase column (EEC Directive 79/831 Annex V.A8). The note with it: HPLC on reversed-phase column (C 18), EEC Directive 79/831 Annex V.A8.
Another data set concerns Alternaria solani. Kind of data set: Alternaria test (tomato)/preventive. The note with it: 500 ppm, preventive, evaluated 7 days after inoculation. The class given is in vivo.
A further data set concerns Sphaerotheca fuliginea. Put plainly: Sphaerotheca test (cucumber)/preventive. The data set is classed as in vivo. The note with it: 500 ppm, preventive, evaluated 7 days after inoculation.
The next data set relates to Puccinia triticina. Kind of data set: Puccinia triticina-test (wheat)/preventive. Particulars: 500 ppm, preventive, evaluated 8 days after inoculation. The data set is classed as in vivo.
Another data set deals with Pyrenophora teres. Kind of data set: Pyrenophora teres-test (barley)/preventive. Particulars: 500 ppm, preventive, evaluated 8 days after inoculation. The data set is classed as in vivo.
A further data set concerns Septoria tritici. Kind of data set: Septoria tritici-test (wheat)/preventive. The data set is classed as in vivo. The note with it: 500 ppm, preventive, evaluated 21 days after inoculation.
The next data set has as its system Uromyces appendiculatus. The note with it: 100 ppm, beans, preventive, evaluated 10 days after inoculation.
The subject of another data set is Botrytis cinerea. Put plainly: Botrytis test (beans)/preventive. Particulars: 100 ppm, preventive, lesion size 2 days after inoculation.
The test system of the next data set is Venturia inaequalis. Put plainly: Venturia test (apples)/preventive. The note with it: 100 ppm, preventive, evaluated 10 days after inoculation.
Data set [2] deals with Fusarium nivale (var. majus). Kind of data set: Fusarium nivale (var. majus)-test (wheat)/preventive. The note with it: for Efficacy: preventive, evaluated 5 days after inoculation.
Method: Fusarium Nivale (Var. Majus)-Test (Wheat)/Preventive
Solvent: 49 parts by weight of N,N-dimethylacetamide
(§1) Emulsifier: 1 part by weight of alkylaryl polyglycol ether
After the spray coating has been dried, the plants are slightly injured by using a sandblast and afterwards they are sprayed with a conidia suspension of Fusarium nivale (var. majus).
The plants are placed in the greenhouse under a translucent incubation cabinet at a temperature of approximately 10° C. and a relative atmospheric humidity of approximately 100%.
The test is evaluated 5 days after the inoculation.
A further data set relates to Pyricularia oryzae. The data set is classed as in vivo.
Another data set has as its system Rhizoctonia solani. Kind of data set: Rhizoctonia test (rice)/protective. The note with it: 250 ppm, protective, evaluated 4 days after inoculation. The class given is in vivo. As for the experimental part: Rhizoctonia Test (Rice)/Protective
Solvent: 28.5 parts by weight of acetone
Emulsifier: 1.5 part by weight of alkylaryl polyglycol ether
1 day after the treatment, the plants are inoculated with hyphae of Rhizoctonia solani.
Evaluation is carried out 4 days after the inoculation.

Molecules are shown by their SMILES. Where two headings read alike, the source gives them in different places.

Method for Botrytis cinerea: Botrytis Test (Beans)/Preventive
Solvent: 24.5 parts by weight of acetone • 24.5 parts by weight of N,N-dimethylformamide
as §1
After the spray coating has dried on, 2 small pieces of agar covered with growth of Botrytis cinerea are placed on each leaf. The inoculated plants are placed in a darkened chamber at 20° C. and a relative atmospheric humidity of 100%.
2 days after the inoculation, the size of the lesions on the leaves is evaluated.

On to `CC(C)OCc1cccc(NC(=O)c2c(C(F)F)nn(C)c2F)c1` [Example 166], for which the Efficacy in the data set with Cochliobolus miyabeanus worked out at 80%. The logP in data set [1] is 2.72.
Turning to `Cn1nc(C(F)F)c(C(=O)Nc2ccccc2-c2ccc(Br)c(Cl)c2)c1Cl` [Example 153], the Efficacy in the data set with Alternaria solani is reported as 90%; in the data set with Sphaerotheca fuliginea, 100%; in the data set on Puccinia triticina, 100%; in the data set with Pyrenophora teres, 100%; with Septoria tritici it was 86%; with Uromyces appendiculatus, 100%. Also, the Efficacy in the data set with Botrytis cinerea came out at 75%; in the data set on Venturia inaequalis, 95%; in data set [2] (500 ppm), 93%. Moreover, the logP in [1] was 4.19.
Turning to `CCCCCc1ccccc1NC(=O)c1c(C(F)F)nn(C)c1Cl` [Example 12], the Efficacy in the data set on Puccinia triticina is recorded as 100%; with Pyrenophora teres, 100%; with Septoria tritici, 71%; with Pyricularia oryzae (in vivo), 93%; in the data set with Rhizoctonia solani, 100%; in the data set on Uromyces appendiculatus, 100%. Besides, the Efficacy with Botrytis cinerea stood at 99%; in the data set on Venturia inaequalis, 100%; in data set [2] (250 ppm) it was 71%; in [2] (500 ppm) it was 86%. Besides, in [2] (dose of 250 ppm and 500 ppm of active ingredient), the protection result is reported as “at least 70%”. In data set [1], this molecule had a logP of 4.01.
Consider `Cn1nc(C(F)F)c(C(=O)Nc2ccccc2-c2ccc(Cl)c(F)c2)c1F` [Example 100], for which the Efficacy in the data set on Alternaria solani was determined as 80%; with Sphaerotheca fuliginea it was 100%; in the data set on Puccinia triticina, 100%; with Pyrenophora teres, 100%; with Septoria tritici, 100%; in the data set on Uromyces appendiculatus, 99%. The values for the Efficacy (in the data set on Botrytis cinerea; in the data set with Venturia inaequalis; in data set [2] (500 ppm)) were 99%, 99% and 90%, respectively. Moreover, the logP in data set [1] is 3.45.
For `Cn1nc(C(F)F)c(C(=O)Nc2ccccc2CC[Si](C)(C)C)c1Cl` [Example 24], the Efficacy in the data set with Puccinia triticina is given as 100%; in the data set on Pyrenophora teres, 86%; in the data set on Pyricularia oryzae (in vivo), 98%; in the data set on Rhizoctonia solani, 100%; with Uromyces appendiculatus it was 100%; with Botrytis cinerea it was 78%. The results for the Efficacy (in the data set with Venturia inaequalis; in data set [2] (500 ppm)) were 100% and 86%, respectively. For the same molecule, the logP in data set [1] is 4.36.
As to `Cn1nc(C(F)F)c(C(=O)Nc2ccccc2OCc2ccc(Cl)cc2Cl)c1Cl` [Example 163], the figures for the Efficacy with Puccinia triticina, with Pyrenophora teres and with Septoria tritici were 71%, 92% and 71%, respectively. The logP in [1] turned out to be 4.81.
For `Cn1nc(C(F)F)c(C(=S)Nc2ccccc2-c2ccc(C(F)(F)F)c(F)c2)c1Cl` [Example 151], the Efficacy in the data set with Alternaria solani was determined as 95%; with Sphaerotheca fuliginea it was 98%; with Puccinia triticina it was 100%; in the data set on Pyrenophora teres, 100%; in the data set on Septoria tritici it was 93%; in [2] (500 ppm) it was 100%. The molecule further displayed a logP in data set [1] of 4.06.
For `COC(C)(C)CCc1ccccc1NC(=O)c1c(C(F)F)nn(C)c1F` [Example 23], the Efficacy with Alternaria solani came out at 70%; with Puccinia triticina, 100%; with Pyrenophora teres, 71%; in the data set on Septoria tritici, 100%; with Uromyces appendiculatus it was 90%; with Venturia inaequalis it was 100%. Besides, the logP in [1] is recorded as 2.74.
With `CC(CC(C)(C)C)c1ccccc1NC(=O)c1c(C(F)F)nn(C)c1Cl` (stereo not drawn) [Example 22], the Efficacy in the data set with Puccinia triticina is given as 100%; in the data set with Pyrenophora teres it was 100%; in the data set with Pyricularia oryzae (in vivo), 80%; in the data set with Rhizoctonia solani, 100%; in the data set with Uromyces appendiculatus it was 100%; in the data set on Botrytis cinerea it was 100%. Further, the figures for the Efficacy (in the data set on Venturia inaequalis; in [2] (500 ppm)) were 100% and 86%, respectively. In data set [1], this molecule showed a logP of 4.31.
Take `Cn1nc(C(F)F)c(C(=O)Nc2ccccc2-c2ccc(F)c(F)c2)c1F` [Example 90]: the Efficacy with Alternaria solani is given as 90%; in the data set with Sphaerotheca fuliginea, 95%; in the data set with Puccinia triticina it was 100%; in the data set with Pyrenophora teres it was 100%; with Septoria tritici, 86%. Besides, the logP in data set [1] was determined as 3.20.
Take `Cn1nc(C(F)F)c(C(=O)Nc2ccc(F)cc2-c2ccc(Cl)c(F)c2)c1Cl` [Example 98]: the Efficacy in the data set on Puccinia triticina is given as 100%; with Pyrenophora teres, 100%; in the data set on Rhizoctonia solani it was 100%; in the data set with Cochliobolus miyabeanus it was 93%; with Uromyces appendiculatus, 100%; with Botrytis cinerea, 100%. Also, the values for the Efficacy (with Venturia inaequalis; in data set [2] (500 ppm)) were 100% and 86%, respectively. In data set [1], this molecule returned a logP of 3.74.
Turning to `Cn1cc(C(=O)Nc2ccc(F)cc2-c2ccc(Cl)c(Cl)c2)c(C(F)F)n1` [11 from WO-2003/070705, N-(3′,4′-dichloro-5-fluorobiphenyl-2-yl)-3-(difluoromethyl)-1-methyl-1H-pyrazole-4-carboxamide, reference compound], the Efficacy in the data set with Pyricularia oryzae (100 ppm, rice, protective, evaluated 5 days after inoculation) came to 20%; with Pyricularia oryzae (250 ppm, rice, protective, evaluated 5 days after inoculation), 80%. The protection entry in the data set on Pyricularia oryzae (dose of 100 ppm and 250 ppm of active ingredient, rice) is recorded as “poor (less than 20%) protection to good (at least 70%) protection”.
For the molecule `Cn1nc(C(F)F)c(C(=O)Nc2cccc(-c3ccc(Cl)cc3)c2)c1Cl` [Example 208], the Efficacy (in the data set on Puccinia triticina; in the data set with Pyrenophora teres; in the data set with Septoria tritici; in [2] (500 ppm)) was 100% each time. This molecule registered a logP in [1] of 4.04.
Turning to `Cn1nc(C(F)F)c(C(=S)Nc2ccccc2-c2cc(F)c(F)c(F)c2)c1F` [Example 106], the Efficacy in the data set on Alternaria solani was 90%; in the data set with Sphaerotheca fuliginea, 98%; in the data set on Puccinia triticina it was 100%; in the data set on Pyrenophora teres it was 100%; in the data set on Septoria tritici, 80%; with Uromyces appendiculatus it was 100%. The Efficacy with Venturia inaequalis was 100%. In data set [1], the log partition coefficient (logP) amounted to 3.65.
As for `Cn1nc(C(F)F)c(C(=O)Nc2ccc(F)cc2-c2ccc(C(F)(F)F)cc2)c1F` [Example 118], the Efficacy was 100% in the data set with Alternaria solani; 100% in the data set on Sphaerotheca fuliginea; 100% in the data set with Puccinia triticina; 100% in the data set with Pyrenophora teres; 86% with Septoria tritici; 95% in the data set with Uromyces appendiculatus. The figures for the Efficacy (in the data set with Botrytis cinerea; in the data set on Venturia inaequalis; in [2] (500 ppm)) were 100%, 100% and 71%, respectively. The same molecule displayed a logP in data set [1] of 3.60.
`Cn1nc(C(F)F)c(C(=O)Nc2ccccc2-c2cccc(Cl)c2)c1F` [Example 86]: the Efficacy with Alternaria solani was determined as 95%; in the data set on Puccinia triticina it was 100%; in the data set with Pyrenophora teres, 100%; in the data set on Septoria tritici it was 86%; with Uromyces appendiculatus it was 100%; in the data set on Botrytis cinerea, 100%. The Efficacy came out at 100% in the data set on Venturia inaequalis and 71% in data set [2] (500 ppm). For the same molecule, the logP in data set [1] turned out to be 3.55.
Take `Cn1nc(C(F)F)c(C(=O)Nc2ccccc2-c2cc(F)c(F)c(F)c2)c1Cl` [Example 105]: the Efficacy was determined as 100% with Puccinia triticina; 100% with Pyrenophora teres; 100% in the data set with Rhizoctonia solani; 95% with Cochliobolus miyabeanus; 100% with Uromyces appendiculatus (listed as 105 from this invention); 100% with Botrytis cinerea. For the same molecule, the Efficacy (in the data set with Venturia inaequalis; in data set [2] (500 ppm)) was 100% in each case. In data set [1], this molecule showed a logP of 3.52.
With `Cn1nc(C(F)F)c(C(=O)Nc2ccc(F)cc2OCC(C)(C)C)c1F` [Example 28], the Efficacy with Alternaria solani is 70%; in the data set on Puccinia triticina, 100%; in the data set on Pyrenophora teres it was 71%; in the data set on Septoria tritici, 90%; with Uromyces appendiculatus, 94%; in the data set on Venturia inaequalis it was 100%. The molecule further yielded a logP in [1] of 4.08.
Consider `Cn1nc(C(F)F)c(C(=O)Nc2ccccc2-c2ccc(C(F)(F)F)c(F)c2)c1F` [Example 149], for which the Efficacy with Alternaria solani, in the data set with Sphaerotheca fuliginea, in the data set with Puccinia triticina, with Pyrenophora teres, in the data set with Septoria tritici and in the data set on Uromyces appendiculatus was 100% in each case. The Efficacy with Botrytis cinerea is 99%; with Venturia inaequalis, 100%; in data set [2] (500 ppm), 93%. Also, the lipophilicity (logP) in data set [1] is listed as 3.46.
Regarding `CC(C)CC(C)c1ccccc1NC(=O)c1c(C(F)F)nn(C)c1F` (stereo not drawn) [Example 11], the Efficacy was found to be 100% with Alternaria solani; 100% in the data set with Sphaerotheca fuliginea; 100% in the data set on Puccinia triticina; 100% in the data set on Pyrenophora teres; 89% with Septoria tritici; 100% in the data set with Rhizoctonia solani. Also, the Efficacy was 100% in the data set with Uromyces appendiculatus, 95% in the data set on Botrytis cinerea and 100% with Venturia inaequalis. This molecule also gave a logP in [1] of 3.85.

In general, logP refers to a log measure of how a compound divides between an organic and an aqueous phase.

The values are drawn from patent US9375004B2 (Bayer Intellectual Property GmbH, priority 2010, dated 2016).
